Tested on: T1, SeLipC
T1 construct: gene lipC; Full gene with native signal peptide (33 aa) expressed in Rhodococcus sp; T104 (pENV19), secreted; purified on phenyl sepharose; The printed nt borders (870 nt) give about 289 codons, not 33 + 259
Assay: colorimetric p-nitrophenol release at […] nm, nonlinear hyperbolic fit
Assay type: biochemical, Streptomyces exfoliatus
Settings: 50 mM Tris/HCl pH 8.0, 37 °C; pNPP 10-800 µM; standard assay with isopropanol, gum arabic and sodium deoxycholate

Km: 49.6 ± 11.2 µM
Compound: CCCCCCCCCCCCCCCC(=O)Oc1ccc([N+](=O)[O-])cc1 [pNPP, p-nitrophenyl palmitate]

— paper PMC10707221, “A Novel Lipase from Streptomyces exfoliatus DSMZ 41693 for Biotechnological Applications” (International Journal of Molecular Sciences, 2023)
